According to patent US10239957B2, “Peptide containing conjugates for dual molecular delivery of oligonucleotides” (Merck Sharp & Dohme Corp., priority 2013, dated 2019):
Where no end group is shown, it is not given here. [ ]: non-standard residue; d: D form.

System: CTNNB1
Test: In vitro DMD assay: mRNA silencing enhancement by peptide conjugates after siRNA-IV treatment
Type: cell-based
Settings: primary mouse hepatocytes, siRNA-IV 125 nM baseline
Method: Cryopreserved primary Mouse hepatocytes (Bioreclamation, LLC) were placed into Collagen Type I coated 96-well plates at 25,000 cells per well in serum-containing InVitroGRO CP media (Bioreclamation, LLC) and allowed 5 hours to attach. Media was replaced with InVitroGRO HI media and cells were treated with siRNA-IV at 125 nM [siRNA] for 1 hour. Media was replaced with InVitroGRO HI media and cells were treated for approximately 16 hours with experimental Peptide conjugates at various concentrations to establish a dose-response curve. Peptide conjugates were washed out after 16 hours with InVitroGRO HI media and cells allowed to incubate for an additional 24 hours. Cells were then lysed and mRNA expression of the siRNA target was measured by RT-qPCR (Applied Biosystems Taqman reagents). mRNA silencing activity of each Peptide conjugate was expressed as an enhancement above the baseline activity of 125 nM siRNA-IV alone with respect to the untreated cells and all siRNA target Ct values were normalized to PPIB mRNA for each well (dddCt) and summarized.
The structure of TGN-S-S-peptide is shown below and the activity data is listed in Table 5 (siRNA-IV concentration was kept at […]).

Substance	In vitro dddCt (vs. baseline SCE dose) (Targeted peptide dose 8 nM)	In vitro dddCt (vs. baseline SCE dose) (Targeted peptide dose 40 nM)	In vitro dddCt (vs. baseline SCE dose) (Targeted peptide dose 200 nM)	In vitro dddCt (vs. baseline SCE dose) (Targeted peptide dose 1000 nM)	In vitro dddCt (vs. baseline SCE dose) (Targeted peptide dose 5000 nM)
TGN-S-S-SEQ ID NO: 1759 (D) ([dC]G[dL][dF]G[dE][dI][dE][dE][dL][dI][dE][dE]G[dL][dE][dS][dL][dI][dD][dW]G[dN]G; not fully specified (residue 1); also: disulfide to TGN peptide via Cys1; listed as Homo sapiens)	−0.15	−0.87	−1.65	−1.66	–
TGN-S-S-SEQ ID NO: 1760 (D) ([dC]G[dL][dF]G[dE][dI][dE][dE][dL][dI][dE][dE]G[dL][dE][dQ][dL][dI][dD][dW]G[dN]G; not fully specified (residue 1); also: disulfide to TGN peptide via Cys1; listed as Homo sapiens)	−0.09	−1.01	−1.6	−1.8	−1.46
TGN-S-S-SEQ ID NO: 1761 (D) ([dC]G[dL][dF]G[dE][dI][dE][dE][dL][dI][dE][dE]G[dL][dE][dN][dW][dI][dD][dW]G[dN]G; not fully specified (residue 1); also: disulfide to TGN peptide via Cys1; listed as Homo sapiens)	0.08	−0.25	−0.22	−0.07	−0.11
TGN-S-S-SEQ ID NO: 1762 (D) ([dC]G[dL][dF]G[dE][dI][dE][dE][dL][dI][dE][dE]G[dL][dE][dN][dF][dI][dD][dW]G[dN]G; not fully specified (residue 1); also: disulfide to TGN peptide via Cys1; listed as Homo sapiens)	−0.07	0.03	−0.17	−0.39	−0.08
TGN-S-S-SEQ ID NO: 1763 (D) ([dC]G[dL][dF]G[dE][dI][dE][dE][dL][dI][dE][dE]G[dL][dE][dN][dL][dW][dD][dW]G[dN]G; not fully specified (residue 1); also: disulfide to TGN peptide via Cys1; listed as Homo sapiens)	−0.13	−0.67	−1.26	−1.44	−1.29
TGN-S-S-SEQ ID NO: 1764 (D) ([dC]G[dL][dF]G[dE][dI][dE][dE][dL][dI][dE][dE]G[dL][dE][dN][dL][dV][dD][dW]G[dN]G; not fully specified (residue 1); also: TGN conjugated via disulfide at Cys1; listed as Homo sapiens)	−0.03	−0.41	−0.78	−0.62	−0.75
TGN-S-S-SEQ ID NO: 1765 (D) ([dC]G[dL][dF]G[dE][dI][dE][dE][dL][dI][dE][dE]G[dL][dE][dN][dL][dI][dE][dW]G[dN]G; not fully specified (residue 1); also: TGN conjugated via disulfide at Cys1; listed as Homo sapiens)	−0.04	−0.38	−0.88	−1.23	−1.23
TGN-S-S-SEQ ID NO: 1772 (D) ([dC]G[dL][dF][dE][dA][dL][dL][dE][dL][dL][dE][dS][dL][dW][dE][dL][dL][dL][dE][dA]G[dY]G; not fully specified (residue 1); also: TGN conjugated via disulfide at Cys1; listed as Homo sapiens)	0.03	−0.15	−0.15	−0.17	−0.08
TGN-S-S-SEQ ID NO: 1775(D) ([dC]G[dL][dF][dE][dA][dL][dL][dE][dL][dL][dE][dS][dL][dW][dE][dL][dL][dL][dE][dA]; not fully specified (residue 1); also: TGN conjugated via disulfide at Cys1; listed as Homo sapiens)	−0.1	−0.14	−0.14	−0.11	−0.37
TGN-S-S-SEQ ID NO: 1777 (D) ([dC]G[dN][dF]G[dE][dI][dE][dE][dL][dI][dE][dE]G[dL][dE][dN][dL][dI][dD][dW]G[dN]G; not fully specified (residue 1); also: TGN conjugated via disulfide at Cys1; listed as Homo sapiens)	−0.18	0.28	−0.13	−0.13	0.09
TGN-S-S-SEQ ID NO: 1778 (D) ([dC]G[dL][dF][dA][dE][dI][dE][dE][dL][dI][dE][dE]G[dL][dE][dN][dL][dI][dD][dW]G[dN]G; not fully specified (residue 1); also: TGN conjugated via disulfide at Cys1; listed as Homo sapiens)	−0.38	−0.57	−0.91	−1.54	–
TGN-S-S-SEQ ID NO: 1779(D) ([dC]G[dL][dF][dE][dE][dI][dE][dE][dL][dI][dE][dE]G[dL][dE][dN][dL][dI][dD][dW]G[dN]G; not fully specified (residue 1); also: TGN conjugated via disulfide at Cys1; listed as Homo sapiens)	−0.18	−0.24	−1.29	−1.52	−1.51
TGN-S-S-SEQ ID NO: 1780 (D) ([dC]G[dL][dF]G[dE][dI][dA][dE][dL][dI][dE][dE]G[dL][dE][dN][dL][dI][dD][dW]G[dN]G; not fully specified (residue 1); also: TGN conjugated via disulfide at Cys1; listed as Homo sapiens)	−0.11	−1.05	−2.83	0.18	−3.2
TGN-S-S-SEQ ID NO: 1781 (D) ([dC][dE][dL][dF]G[dE][dI][dE][dE][dL][dI][dE][dE]G[dL][dE][dN][dL][dI][dD][dW]G[dN]G; not fully specified (residue 1); also: TGN conjugated via disulfide at Cys1; listed as Homo sapiens)	−0.01	−0.02	0.03	−0.01	0.01
TGN-S-S-SEQ ID NO: 1782 (D) ([dC][dA][dL][dF]G[dE][dI][dE][dE][dL][dI][dE][dE]G[dL][dE][dN][dL][dI][dD][dW]G[dN]G; not fully specified (residue 1); also: TGN conjugated via disulfide at Cys1; listed as Homo sapiens)	−0.14	0.43	−0.17	−0.21	–
